Test [1] deals with MNs with mutant SOD1 gene (L144FVX). The experiment in a line: Large scale screen using ALS MN (MN survival readout). The test is classed as cell-based, human. The conditions noted are these: for MN index: compounds at final concentration 10 μM added on day 7, cells fixed and stained on day 14, viable MNs stained with βIII-tubulin. The procedure:
(§1) iPS cell cells containing LNI cassette were dissociated into single cells using Accutase, and seeded together with 1 μg/ml of doxycycline (TAKARA, Kusatsu, Japan) in N3 medium containing 1 μM retinoic acid, 1 μM SAG, 10 ng/ml BDNF, 10 ng/ml GDNF, and 10 ng/ml NT-3 on a 96 well plate (BD Bioscience) coated with Matrigel. The cells were fixed and stained on days 7 and 14. The number of viable MNs stained with βIII-tubulin was quantified by IN Cell Analyzer 6000 and expressed as the number of day 14/day 7. […] In this assay, therefore, βIII-tubulin positive neurons were defined as MN. Neurite and cell body were detected by optimized fluorescence levels, and the number of cell bodies having neurite was counted as the number of surviving neurons using IN Cell Developer toolbox software 1.9.
iPS cell cells containing LNI cassette were dissociated into single cells using Accutase, and seeded together with 1 ng/ml of doxycycline in N3 medium containing 1 μM RA, 1 μM SAG, 10 ng/ml BDNF, 10 ng/ml GDNF and 10 ng/ml NT-3 on a 96 well plate (BD Bioscience) coated with Matrigel. The libraries used for drug screening were Microsource US Drugs (Microsource Discovery Systems), Microsource International Drugs (Microsource Discovery Systems), and kinase inhibitor purchased from EMD and Selleck Chemicals. Using Integrity and Nextbio data base, existing drugs and test drugs in clinical trials were selected from these libraries and used for throughput screening. […] DMSO was used as a negative control, and kenpaullone, which is a candidate drug for ALS treatment, was used as a positive control. The number of viable MNs stained with βIII-tubulin was quantified by IN Cell Analyzer 6000.

In test [2] the test system is mutant SOD1 ALS MNs (ALS1). The test can be described thus: MN survival assay and high content analysis. The test is classed as cell-based, human. As to conditions: for MN survival: mutant SOD1 ALS MNs (ALS1), compound added day 7, counted day 14. The procedure:
as §1
Short interfering RNA (siRNA) was purchased from Life Technologies (siRNA ID of Src siRNA 1: s13414; siRNA ID of Src siRNA 2: s13413; siRNA ID of c-Abl siRNA 1: s866; siRNA ID of c-Abl siRNA 2: s864; siRNA ID of mTOR siRNA: s604). Scramble siRNA purchased from Life Technologies was used as a negative control of siRNA. iPS cells were dissociated and plated with dox in a 96 well plate. On day 7, siRNA was transfected with Lipofectamine RNAiMAX (Thermo Fisher Scientific). Viable MN was evaluated 4 days after transfection by immunostaining with βIII-tubulin, followed by analysis with IN Cell Analyzer 6000 and IN Cell Developer toolbox software 1.9.

The test system of test [3] is mutant SOD1 Tg mice. The experiment in a line: ALS model mouse (Tg-G93A SOD1 mouse). As to conditions: 5 mg/kg intraperitoneal from 8th week for 5 weeks; mean±SD, n=26 per group; Kaplan-Meier. In kind it is in vivo.

Structures can show the parent of a compound that is named as a salt.

These results are taken from patent US20200368267A1, “PROPHYLACTIC AND/OR THERAPEUTIC AGENT FOR AMYOTROPHIC LATERAL SCLEROSIS” (KYOTO UNIVERSITY, priority 2017, published 2020).

Turning to `O=C(/C=C/C=C/c1ccc2c(c1)OCO2)N1CCCCC1` [piperine], the MN index in test [1] was 7.391.

In turn, `O=C(c1ccc(/C=C/c2n[nH]c3ccccc23)cc1)N1CCNCC1` [KW 2449] displayed an MN index in test [1] of 7.722.

With `Cc1cc(Nc2cc(N3CCN(C)CC3)nc(Sc3ccc(NC(=O)C4CC4)cc3)n2)n[nH]1` [VX-680], the MN index in test [1] was determined as 9.578.

As to `Cc1ccc(NC(=O)c2ccc(CN3CCN(C)CC3)cc2)cc1Nc1nccc(-c2cccnc2)n1` [imatinib], the MN survival entry in test [2] is on record as “increased MN survival”.

`CCN(CC)Cc1cc(Nc2ccnc3cc(Cl)ccc23)ccc1O` [amodiaquine dihydrochloride] returned an MN index in test [1] of 8.98.

For the compound `Cc1cn(-c2cc(NC(=O)c3ccc(C)c(Nc4nccc(-c5cccnc5)n4)c3)cc(C(F)(F)F)c2)cn1` [nilotinib], in test [2], the MN survival entry is “increased MN survival”.

`COc1cc2nccc(Oc3ccc(NC(=O)Nc4cc(C)on4)c(Cl)c3)c2cc1OC` [tivozanib] returned an MN index in test [1] of 17.26.

In the case of `COc1ccc2c(c1OC)C(=O)O[C@@H]2[C@H]1c2cc3c(cc2CCN1C)OCO3` [hydrastine (1R, 9S)], the MN index in test [1] is given as 7.525.

Turning to `CNC(=O)c1ccccc1Sc1ccc2c(/C=C/c3ccccn3)n[nH]c2c1` [axitinib], the MN index in test [1] is 7.353.

Consider `CCCCOC(=O)c1ccc(N)cc1` [butamben], for which, in test [1], the MN index was determined as 7.391.

`CCN(CC)CCNC(=O)c1c(C)[nH]c(/C=C2\C(=O)Nc3ccc(F)cc32)c1C` [sunitinib malate] registered an MN index in test [1] of 8.133.

Compound `Cc1ccc(Nc2nccc(N(C)c3ccc4c(C)n(C)nc4c3)n2)cc1S(N)(=O)=O` [pazopanib hydrochloride] showed an MN index in test [1] of 9.533.

As for `CN1CCc2cccc3c2[C@H]1Cc1ccc(O)c(O)c1-3` [apomorphine hydrochloride], in test [1], the MN index amounted to 7.257.

`CN(C)CCCn1cc(C2=C(c3c[nH]c4ccccc34)C(=O)NC2=O)c2ccccc21` [bisindolylmaleimide I] yielded an MN index in test [1] of 7.963.

For the compound `C[C@@H](Oc1cc(-c2cnn(C3CCNCC3)c2)cnc1N)c1c(Cl)ccc(F)c1Cl` [PF-2341066], the MN index in test [1] is reported as 7.595.

In test [3], `COc1cc(Nc2c(C#N)cnc3cc(OCCCN4CCN(C)CC4)c(OC)cc23)c(Cl)cc1Cl` [bosutinib (SKI-606), bosutinib] came in with a disease onset of 123.2 ± 9.1 days and a survival time of 164.1 ± 9.4 days. The compound further displayed an MN index in test [1] of 7.196.

Regarding `Cc1c(C)c2c(c(C)c1O)CCC(C)(CCCC(C)CCCC(C)CCCC(C)C)O2` (stereo not drawn) [alpha-tochopherol], in test [1], the MN index was 9.456.

Turning to `CCN(CC)CCCC(C)Nc1ccnc2cc(Cl)ccc12` (centres unmarked) [chloroquine], the “effect of autophagy inhibitor on the protective effect of bosutinib in MN survival assay” value in test [2] (added to MNs with bosutinib treatment) was “decreased the protective effect of bosutinib”.

The compound `CCN(CCCCOC(=O)c1ccc(OC)c(OC)c1)C(C)Cc1ccc(OC)cc1` (centres unmarked) [mebeverine hydrochloride] displayed an MN index in test [1] of 6.856.

On to `CCOc1ccn(-c2ccc(F)cc2)c(=O)c1C(=O)Nc1ccc(Oc2ccnc(N)c2Cl)c(F)c1` [BMS 777607], for which, in test [1], the MN index amounted to 8.551.

The compound `Cc1nc(Nc2ncc(C(=O)Nc3c(C)cccc3Cl)s2)cc(N2CCN(CCO)CC2)n1` [dasatinib] registered an MN index in test [1] of 6.659.

In turn, `Oc1ccc(O)cc1` [hydroquinone] gave an MN index in test [1] of 7.957.

As for `Cc1cc2nc3c(=O)[nH]c(=O)nc-3n(C[C@H](O)[C@H](O)[C@H](O)CO)c2cc1C` [riboflavin], the MN index in test [1] came to 9.554.

`Cc1nc(N)sc1-c1ccnc(Nc2ccc(N3CCOCC3)cc2)n1` [CYC116]: the MN index in test [1] is reported as 8.142.

Consider `O=C(O)CCC(=O)c1ccc(-c2ccccc2)cc1` [fenbufen], for which the MN index in test [1] came out at 7.224.

In the case of `COCCNCc1ccc(-c2cc3nccc(Oc4ccc(NC(=S)NC(=O)Cc5ccc(F)cc5)cc4F)c3s2)nc1` [MGCD-265], the MN index in test [1] was 7.623.

In test [1], `Cn1cc(C2=C(c3cn(C4CCN(Cc5ccccn5)CC4)c4ccccc34)C(=O)NC2=O)c2ccccc21` [enzastaurin] showed an MN index of 9.841.

As for `CCCC1O[C@@H]2C[C@H]3[C@@H]4CCC5=CC(=O)C=C[C@]5(C)[C@H]4[C@@H](O)C[C@]3(C)[C@]2(C(=O)CO)O1` (some centres unmarked) [budesonide], in test [1], the MN index stood at 10.27.

As for `CC1(C)O[C@@H]2C[C@H]3[C@@H]4C[C@H](F)C5=CC(=O)C=C[C@]5(C)[C@H]4[C@@H](O)C[C@]3(C)[C@]2(C(=O)CO)O1` [flunisolide], the MN index in test [1] is 7.857.

Turning to `O=C1Cc2c([nH]c3ccc(Br)cc23)-c2ccccc2N1` [kenpaullone], the “positive control effect on ALS MN survival” value in test [1] (50 μM, positive control assays) was “positive effect was confirmed”.
